The assay concerns the target Human Factor D (Homo sapiens (Human), UniProt P00746). The assay is described as follows: Human Factor D Assay. It counts as biochemical. In short, it runs like this: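 Thioester substrate Z-L-Lys-SBz (100 μM) with Ellman's reagent DTNB (100 μM) reports activity of 80 nM human serum-derived enzyme, kinetically at 405 nm over 30 min. Compound preincubated 5 min, room temperature, pH 7.5 Tris/1 M NaCl; IC50 by nonlinear fit of rates.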

The mark [1] stands for this setting: Table 6, Factor D 80 nM, substrate Z-L-Lys-SBz, read-out: IC50.
Setting [2] is: Factor D inhibition, assay of Example 10, read-out: IC5 (Stars).

This note sets out measurements from patent publication US11084800B2 (Achillion Pharmaceuticals, Inc., priority 2017, dated 2021).

Read-outs that look alike come from different tables or passages of the source.

Sequence of Human Factor D (P00746 26-253): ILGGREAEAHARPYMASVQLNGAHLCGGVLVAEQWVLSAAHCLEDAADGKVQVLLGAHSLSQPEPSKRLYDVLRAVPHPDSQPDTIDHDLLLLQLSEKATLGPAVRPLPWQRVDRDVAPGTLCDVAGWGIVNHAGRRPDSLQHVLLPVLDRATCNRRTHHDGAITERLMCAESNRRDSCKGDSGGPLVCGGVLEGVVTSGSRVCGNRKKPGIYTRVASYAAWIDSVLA

For `CC(=O)c1nn(CC(=O)N2[C@H](C(=O)Nc3nc(Br)ccc3C)C[C@@]3(C)C[C@@H]23)c2cnc(-c3cnc(C)[n+]([O-])c3)cc12` [Compound 200, 5-(3-acetyl-1-(2-((1R,3S,5R)-3-((6-bromo-3-methylpyridin-2-yl)carbamoyl)-5-methyl-2-azabicyclo[3.1.0]hexan-2-yl)-2-oxoethyl)-1H-pyrazolo[3,4-c]pyridin-5-yl)-2-methylpyrimidine 1-oxide], the IC50 under setting [1] is below 1000 nM.
For `CC(=O)c1nn(CC(=O)N2[C@H](C(=O)Nc3nc(Br)ccc3C)C[C@@]3(Cn4cc(C5CC5)nn4)C[C@@H]23)c2ccc(-c3cnc(C)nc3)cc12` [Compound 201, (1R,3S,5R)-2-(2-(3-acetyl-5-(2-methylpyrimidin-5-yl)-1H-indazol-1-yl)acetyl)-N-(6-bromo-3-methylpyridin-2-yl)-5-((4-cyclopropyl-1H-1,2,3-triazol-1-yl)methyl)-2-azabicyclo[3.1.0]hexane-3-carboxamide], the IC50 under setting [1] is below 1000 nM.
Same read-out and setting: under `CC(=O)c1nn(CC(=O)N2[C@H](C(=O)Nc3nc(Br)ccc3C)C[C@@]3(Cn4cc([Si](C)(C)C)nn4)C[C@@H]23)c2ccc(-c3cnc(C)nc3)cc12` [Compound 202, (1R,3S,5R)-2-(2-(3-acetyl-5-(2-methylpyrimidin-5-yl)-1H-indazol-1-yl)acetyl)-N-(6-bromo-3-methylpyridin-2-yl)-5-((4-(trimethylsilyl)-1H-1,2,3-triazol-1-yl)methyl)-2-azabicyclo[3.1.0]hexane-3-carboxamide] stands below 1000 nM; under `CC(=O)c1nn(CC(=O)N2[C@H](C(=O)Nc3nc(Br)ccc3C)C[C@@]3(Cn4ccnn4)C[C@@H]23)c2ccc(-c3cnc(C)nc3)cc12` [Compound 203, (1R,3S,5R)-5-((1H-1,2,3-triazol-1-yl)methyl)-2-(2-(3-acetyl-5-(2-methylpyrimidin-5-yl)-1H-indazol-1-yl)acetyl)-N-(6-bromo-3-methylpyridin-2-yl)-2-azabicyclo[3.1.0]hexane-3-carboxamide], below 1000 nM.
In the case of `CC(=O)c1nn(CC(=O)N2[C@H](C(=O)Nc3nc(Br)ccc3CN3CC4(COC4)C3)C[C@@]3(C)C[C@@H]23)c2ccc(-c3cnc(C)nc3)cc12` [Compound 204], the IC50 under setting [1] was below 1000 nM.
`CC(=O)c1nn(CC(=O)N2[C@H](C(=O)Nc3nc(Br)ccc3C)C[C@@]3(C)C[C@@H]23)c2c(C)nc(-c3cnc(C)nc3)cc12` [Compound 205, (1R,3S,5R)-2-(2-(3-acetyl-7-methyl-5-(2-methylpyrimidin-5-yl)-1H-pyrazolo[3,4-c]pyridin-1-yl)acetyl)-N-(6-bromo-3-methylpyridin-2-yl)-5-methyl-2-azabicyclo[3.1.0]hexane-3-carboxamide]: the IC50 under setting [1] is below 1000 nM.
Take `CC(=O)c1nn(CC(=O)N2[C@H]3C[C@@]3(CN3C[C@H]4CCC[C@H]4C3)C[C@H]2C(=O)Nc2nc(Br)ccc2C)c2cnc(-c3cnc(C)nc3)cc12` [Compound 206, (1S,3S,5S)-2-(2-(3-acetyl-5-(2-methylpyrimidin-5-yl)-1H-pyrazolo[3,4-c]pyridin-1-yl)acetyl)-N-(6-bromo-3-methylpyridin-2-yl)-S-(((3aR,6a5)-hexahydrocyclopenta[c]pyrrol-2(1H)-yl)methyl)-2-azabicyclo[3.1.0]hexane-3-carboxamide]: the IC50 under setting [1] is below 1000 nM.
For the compound `CC(=O)c1nn(CC(=O)N2[C@H]3C[C@@]3(CN3CC4(CCCC4)C3)C[C@H]2C(=O)Nc2nc(Br)ccc2C)c2cnc(-c3cnc(C)nc3)cc12` [Compound 207, (1S,3S,5S)-5-((2-azaspiro[3.4]octan-2-yl)methyl)-2-(2-(3-acetyl-5-(2-methylpyrimidin-5-yl)-1H-pyrazolo[3,4-c]pyridin-1-yl)acetyl)-N-(6-bromo-3-methylpyridin-2-yl)-2-], under setting [1], the IC50 was below 1000 nM.
Consider `CC(=O)c1nn(CC(=O)N2[C@H](C(=O)Nc3nc(Br)ccc3C)C[C@@]3(C)C[C@@H]23)c2c(C)cc(-c3cnc(OC4COC4)nc3)cc12` [Compound 208, (1R,3S,5R)-2-(2-(3-acetyl-7-methyl-5-(2-(oxetan-3-yloxy)pyrimidin-5-yl)-1H-indazol-1-yl)acetyl)-N-(6-bromo-3-methylpyridin-2-yl)-5-methyl-2-azabicyclo[3.1.0]hexane-3-carboxamide], for which the IC50 under setting [1] is below 1000 nM.
As to `CC(=O)c1nn(CC(=O)N2[C@H](C(=O)Nc3nc(Br)c(F)cc3C)C[C@@]3(C)C[C@@H]23)c2c(C)nc(-c3cnc(C)nc3)cc12` [Compound 209, (1R,3S,5R)-2-(2-(3-acetyl-7-methyl-5-(2-methylpyrimidin-5-yl)-1H-pyrazolo[3,4-c]pyridin-1-yl)acetyl)-N-(6-bromo-5-fluoro-3-methylpyridin-2-yl)-5-methyl-2-azabicyclo[3.1.0]hexane-3-carboxamide], the IC50 under setting [1] is below 1000 nM.
For the compound `CC(=O)c1nn(CC(=O)N2[C@H](C(=O)Nc3nc(Br)ccc3C)C[C@@]3(C)C[C@@H]23)c2c(C)cc(-c3cnc(C)nc3)nc12` [Compound 210, (1R,3S,5R)-2-(2-(3-acetyl-7-methyl-5-(2-methylpyrimidin-5-yl)-1H-pyrazolo[4,3-b]pyridin-1-yl)acetyl)-N-(6-bromo-3-methylpyridin-2-yl)-5-methyl-2-azabicyclo[3.1.0]hexane-3-carboxamide], the IC50 under setting [1] is above 10000 nM.
As to `NC(=O)c1cc(-c2cccnc2)n(CC(=O)N2C[C@H](F)C[C@H]2C(=O)Nc2cccc(Br)n2)n1` [Compound 211, 1-(2-((2S,4R)-2-((6-Bromopyridin-2-yl)carbamoyl)-4-fluoropyrrolidin-1-yl)-2-oxoethyl)-5-(pyridin-3-yl)-1H-pyrazole-3-carboxamide], under setting [1], the IC50 is below 1000 nM.
The same measure, in the same setting: as for `Cc1ccc(Br)nc1NC(=O)[C@@H]1C[C@@]2(C)C[C@H]2N1C(=O)Cn1nc(C(N)=O)cc1-c1ccco1` [Compound 212, (1R,3S,5R)—N-(6-Bromo-3-methylpyridin-2-yl)-2-(2-(3-carbamoyl-5-(furan-2-yl)-1H-pyrazol-1-yl)acetyl)-5-methyl-2-azabicyclo[3.1.0]hexane-3-carboxamide], the figure is below 1000 nM.
Consider `Cc1ccc(Br)nc1NC(=O)[C@@H]1C[C@@]2(C)C[C@H]2N1C(=O)Cn1nc(-c2ccco2)cc1C(N)=O` [Compound 213, (1R,3S,5R)—N-(6-Bromo-3-methylpyridin-2-yl)-2-(2-(5-carbamoyl-3-(furan-2-yl)-1H-pyrazol-1-yl)acetyl)-5-methyl-2-azabicyclo[3.1.0]hexane-3-carboxamide], for which the IC50 under setting [1] lay within 1000 to 10000 nM.
Turning to `Cc1ccc(Br)nc1NC(=O)[C@@H]1C[C@@]2(C)C[C@H]2N1C(=O)Cn1nc(C(N)=O)cc1-c1cccs1` [Compound 214, (1R,3S,5R)—N-(6-Bromo-3-methylpyridin-2-yl)-2-(2-(3-carbamoyl-5-(thiophen-2-yl)-1H-pyrazol-1-yl)acetyl)-5-methyl-2-azabicyclo[3.1.0]hexane-3-carboxamide], the IC50 under setting [1] is below 1000 nM.
Take `Cc1ncc(-c2cc(C(N)=O)nn2CC(=O)N2C[C@H](F)C[C@H]2C(=O)Nc2cccc(Br)n2)cn1` [Compound 215, 1-(2-((2S,4R)-2-((6-Bromopyridin-2-yl)carbamoyl)-4-fluoropyrrolidin-1-yl)-2-oxoethyl)-5-(2-methylpyrimidin-5-yl)-1H-pyrazole-3-carboxamide]: the IC50 under setting [1] was above 10000 nM.
Take `CC(=O)c1c2cc(-c3cnc(C)nc3)cc(C(F)(F)F)c2nn1CC(=O)N1[C@H](C(=O)Nc2nc(Br)ccc2C)C[C@@]2(C)C[C@@H]12` [Compound 217, (1R,3S,5R)-2-(2-(3-acetyl-5-(2-methylpyrimidin-5-yl)-7-(trifluoromethyl)-2H-indazol-2-yl)acetyl)-N-(6-bromo-3-methylpyridin-2-yl)-5-methyl-2-azabicyclo[3.1.0]hexane-3-carboxamide]: the IC50 under setting [1] was above 10000 nM.
On to `CC(=O)c1nn(CC(=O)N2[C@H](C(=O)Nc3nc(Br)ccc3C)C[C@@]3(C)C[C@@H]23)c2cnc(-c3cnc4cc(C)nn4c3)cc12` [Compound 219, (1R,3S,5R)-2-(2-(3-acetyl-5-(2-methylpyrazolo[1,5-a]pyrimidin-6-yl)-1H-pyrazolo[3,4-c]pyridin-1-yl)acetyl)-N-(6-bromo-3-methylpyridin-2-yl)-5-methyl-2-azabicyclo[3.1.0]hexane-3-carboxamide], for which, under setting [1], the IC50 was below 1000 nM.
On to `CC(=O)c1nn(CC(=O)N2[C@H](C(=O)Nc3nc(Br)ccc3C)C[C@@]3(C)C[C@@H]23)c2c(-c3nn[nH]n3)cc(-c3cnc(C)nc3)cc12` [Compound 236, (1R,3S,5R)-2-(2-(3-acetyl-5-(2-methylpyrimidin-5-yl)-7-(2H-tetrazol-5-yl)-1H-indazol-1-yl)acetyl)-N-(6-bromo-3-methylpyridin-2-yl)-5-methyl-2-azabicyclo[3.1.0]hexane-3-carboxamide], for which the IC50 (Table 8, Factor D 80 nM, substrate Z-L-Lys-SBz, read-out: IC50) was below 1000 nM.
In the case of `CC(=O)c1nn(CC(=O)N2[C@H](C(=O)Nc3nc(Br)ccc3C)C[C@@]3(C)C[C@@H]23)c2c(C(F)CF)cc(-c3cnc(C)nc3)cc12` (stereo partly drawn) [Compound 237, (1R,3S,5R)-2-(2-(3-acetyl-7-(1,2-difluoroethyl)-5-(2-methylpyrimidin-5-yl)-1H-indazol-1-yl)acetyl)-N-(6-bromo-3-methylpyridin-2-yl)-5-methyl-2-azabicyclo[3.1.0]hexane-3-carboxamide], the IC50 under setting [2] was below 1000 nM.
For `CC(=O)c1nn(CC(=O)N2[C@H](C(=O)Nc3nc(Br)ccc3C)C[C@@]3(C)C[C@@H]23)c2c(C(O)CF)cc(-c3cnc(C)nc3)cc12` (stereo partly drawn) [Compound 238, (1R,3S,5R)-2-(2-(3-acetyl-7-(2-fluoro-1-hydroxyethyl)-5-(2-methylpyrimidin-5-yl)-1H-indazol-1-yl)acetyl)-N-(6-bromo-3-methylpyridin-2-yl)-5-methyl-2-azabicyclo[3.1.0]hexane-3-carboxamide], the IC50 under setting [2] was below 1000 nM.
